Test results reported in paper PMC6271893, “In Vitro Antioxidant and Cytotoxic Activity of Some Synthetic Riparin-Derived Compounds” (Molecules, 2014).
In brackets after ≈: the same amount, converted by molar mass. Marks after values point to notes of the source that are not given here.

Legend:
[1] = Scavenging activity of nitric oxide (nitrite production induced by SNP, Griess reaction); conditions: for IC50 Nitrite: nitrite formation
Description: (§1) For the in vitro antioxidant tests the samples were emulsified in 0.05% Tween 80 dissolved in saline 0.9% (used as the vehicle) and tested at concentrations of 1, 5, 10, 25 and 100 µg/mL. The samples for the cytotoxicity tests were diluted in pure and sterile DMSO and tested at concentrations of 25 µg/mL.
Nitric oxide was generated from spontaneous decomposition of sodium nitroprusside in 20 mM phosphate buffer (pH 7.4). Once generated, NO interacts with oxygen to produce nitrite ions, which are measured by the Griess reaction. The reaction mixture (1 mL) containing 10 mM sodium nitroprusside (SNP) in phosphate buffer and the riparins at various concentrations of 1, 5, 10, 25 and 100 µg/mL were incubated at 37 °C for 1 h. A 0.5 mL aliquot was taken and homogenized with 0.5 mL Griess reagent. The absorbance of chromophore was measured at 540 nm. Percent inhibition of generated nitric oxide was measured by comparing the absorbance values of negative controls (only 10 mM sodium nitroprusside and vehicle) to assay preparations. Results were expressed as percentage of nitrite formed by SNP alone.

[2] = Hydroxyl radical scavenging activity (2-deoxyribose degradation, Fenton reaction); conditions: for IC50 OH radical: hydroxyl radical content
Description: as §1
The formation of OH radicals from Fenton reagents was quantified using the condensation product of the 2-deoxyribose oxidative degradation product, malonaldehyde, with 2-thiobarbituric acid (TBA). Briefly, typical reactions were started by the addition of Fe^2+ (FeSO4 6 mM final concentration) to solutions containing 5 mM 2-deoxyribose, 100 mM H2O2 and 20 mM phosphate buffer (pH 7.2). In order to determine the antioxidant activity of the riparins against the hydroxyl radical, individual tests were performed on each one of the six substances, in which different concentrations of the riparins were added to the system before Fe^2+ addition (Rip-A; Rip-B; Rip-C; Rip-D; Rip-E and Rip-F). Reactions were carried out for 15 min at room temperature and were quenched by the addition of phosphoric acid 4% (v/v), followed by TBA 1% (thiobarbituric acid, v/v in 50 μL NaOH). The solutions were boiled for 15 min to 95 °C and then cooled at room temperature. The absorbance was measured at 532 nm and the results were expressed as MDA equivalents formed by Fe^2+ and H2O2 [25].

[3] = Antioxidant potential against the formation of TBARS (AAPH-induced lipid peroxidation of egg yolk homogenate); conditions: for IC50 TBARS: TBARS production
Description: as §1
The TBARS assay was employed to quantify lipid peroxidation and an adapted TBARS method was used to measure the antioxidant capacity of the riparins (Rip-A, -B, -C, -D, -E and -F) using egg yolk homogenate as lipid rich substrate. Egg yolk was homogenized (1% w/v) in 20 mM phosphate buffer (pH 7.4), 1 mL of homogenate was sonicated and then homogenized with 0.1 mL of the samples at concentrations of 1, 5, 10, 25 and 100 µg/mL. Lipid peroxidation was induced by the addition of 0.1 mL of 2,2'-azobis(2-methylpropionamidine) dihydrochloride solution (AAPH; 0.12 M). Control was evaluated with only the vehicle. Reactions were carried out for 15 minutes at 37 °C. After cooling, samples (0.5 mL) were centrifuged with 0.5 mL of trichloroacetic acid (15%) at 1,200 ×g for 10 min. An aliquot of 0.5 mL from supernatant was mixed with 0.5 mL TBA (0.67%) and heated at 95 °C for 30 min. After cooling, sample absorbance was measured using a spectrophotometer at 532 nm. The results were expressed as percentage of TBARS formed by AAPH alone (induced control).

[4] = system: HEP-2 (laryngeal carcinoma); experiment: Cytotoxicity against tumor cell lines (MTT); type: cell-based; conditions: Homo sapiens, 72 h, 95% confidence interval in brackets, read-out: IC50 values and confidence intervals, HEP-2
Description: (§2) Cells were maintained at 37 °C with 5% CO2 in RPMI 1640 (Himedia^TM, Mumbai, India) or DMEM medium (Gibco^TM, Grand Island, NY, USA) supplemented with 2 mM glutamine, 100 U/mL penicillin, 100 μg/mL streptomycin. The antiproliferative activities of riparins were evaluated in the following human cancer cells lineage: HL-60 (pro-myelocytic leukemia), NCIH-292 (lung carcinoma), and HEP-2 (laryngeal carcinoma) obtained from the Rio de Janeiro Cell Bank (RJ-Brazil). For all experiments, 100 µL of tumor cells were plated in 96-well plates (6 × 10^4 cells/cm^2 for adherent cells or 9 × 10^4 cells/cm^2 for leukemia). Tested compounds (0.1–25 μg/mL) dissolved in 1% DMSO (100 µL) were added to each well and incubated for 72 h. Control groups received the same amount of DMSO. After 69 h of treatment, 25 μL of MTT (5 mg/mL) were added. Three hours later, the MTT formazan product was dissolved in 100 μL of DMSO, and absorbance was measured at 595 nm using a multiplate reader (Thermo Plate®, TP Reader, São Paulo, SP, Brasil).
(§3) The obtained data were evaluated by one-way analysis of variance (ANOVA) followed by a Student Newman Keuls post hoc test. The data concerning release percentage of cytoplasmatic enzyme lactate dehydrogenase (LDH) were reported by mean ± standard deviation and evaluated by one-way analysis of variance (ANOVA) followed by a Tukey post hoc test. In all cases differences were considered significant if p < 0.05, the means and respective standard errors were analyzed in the Graph Pad Prism version 5.0 for Windows software (GraphPad Software Incorporated, San Diego, CA, USA).

[5] = system: HL-60 (pro-myelocytic leukemia); experiment: Cytotoxicity against tumor cell lines (MTT); type: cell-based; conditions: Homo sapiens, 72 h, 95% confidence interval in brackets, read-out: IC50 values and confidence intervals, HL-60
Description: as §2, §3

[6] = system: NCIH-292 (lung carcinoma); experiment: Cytotoxicity against tumor cell lines (MTT); type: cell-based; conditions: Homo sapiens, NCI-H292, 72 h, 95% confidence interval in brackets, read-out: IC50 values and confidence intervals, NCIH-292
Description: as §2, §3

[7] = system: murine peritoneal macrophages RAW 264.7; experiment: Cytotoxicity assay on RAW 264.7 (LDH release); type: cell-based; conditions: 25 µg/mL, RAW 264.7
Description: Murine peritoneal macrophages of the cell line RAW 264.7 were obtained from the American Type Culture Collection (ATCC, Rockville, MD, USA), and cultured at 37 °C with CO2 at 5% in DMEM-F12 supplemented with 10% fetal bovine serum (FBS; Hyclone^TM, Logan, UT, USA) and gentamicin (50 μg/mL). RAW 264.7 cells (5 × 10^5 cells/mL) were cultured and incubated for 24 h with the riparins A, B, C, D, E and F at the final concentration of 25 µg/mL […]. The cytotoxicity assay was performed by LDH assay. The release of LDH (cytoplasmic lactate dehydrogenase enzyme) was determined using 50 μL of culture supernatant with 100 μL of LDH substrate plus and 5 μL ferric alum (5 mg/mL), at 37 °C for 3 min. Then, 100 μL of the NAD solution and phenazine methosulphate were added to the mixture, maintaining the temperature at 37 °C for 5 min (Labrax Commercial Kit, Clontech, Palo Alto, CA, USA). LDH is an oxidoreductase which catalyzes the interconversion of lactate and pyruvate and, for being a stable cytosolic enzyme, after damage to cell membrane it is released in the cellular environment and because of this LDH is an indirect indicator of cytotoxicity. LDH concentration was determined by colorimetry at 492 nm. The specific release of LDH was calculated as percentage of the controls (not treated cells as negative control and cells treated with 1%Triton X-100 as positive control).
as §3

[8] = system: tumor cells lines (leukemia and lung and laryngeal carcinoma); experiment: Cytotoxicity on tumor cell lines, summary statements over the lines (MTT); type: cell-based; conditions: Homo sapiens; for IC50: leukemia and lung and laryngeal carcinoma, read-out: IC50 values on neoplastic cells (range over cell lines); for inhibition at 25 µg/mL: tumor cells lines, cytotoxicity samples tested at 25 µg/mL, read-out: cell growth inhibition rates
Description: as §1, §2

COc1ccc(CCNC(=O)c2ccccc2)cc1OC [Rip-B, N-[2-(3,4-Dimethoxyphenyl)ethyl]benzamide]
Nitrite Production (% induced by SNP) ([1]; 1 μg/mL): 75.8 ± 1.02 ^a % | Nitrite Production (% induced by SNP) ([1]; 5 μg/mL): 34.1 ± 1.85 ^a % | Nitrite Production (% induced by SNP) ([1]; 10 μg/mL): 29.1 ± 2.00 ^a % | Nitrite Production (% induced by SNP) ([1]; 25 μg/mL): 23.1 ± 0.97 ^a % | Nitrite Production (% induced by SNP) ([1]; 100 μg/mL): 20.6 ± 0.98 ^a % | IC50 Nitrite [1]: 0.7948 µg/mL (≈ 2.79 µM) | 2-Deoxyribose degradation (%) ([2]; 1 μg/mL): 98.4 ± 0.39 ^a % | 2-Deoxyribose degradation (%) ([2]; 5 μg/mL): 79.8 ± 1.34 ^a % | 2-Deoxyribose degradation (%) ([2]; 10 μg/mL): 58.5 ± 0.85 ^a % | 2-Deoxyribose degradation (%) ([2]; 25 μg/mL): 47.7 ± 0.44 ^a % | 2-Deoxyribose degradation (%) ([2]; 100 μg/mL): 47.2 ± 0.43 ^a % | IC50 OH radical [2]: 1.639 µg/mL (≈ 5.74 µM) | TBARS levels (% AAPH) ([3]; 1 μg/mL): 44.5 ± 1.31 ^a % | TBARS levels (% AAPH) ([3]; 5 μg/mL): 40.4 ± 0.85 ^a % | TBARS levels (% AAPH) ([3]; 10 μg/mL): 38.3 ± 1.05 ^a % | TBARS levels (% AAPH) ([3]; 25 μg/mL): 36.5 ± 1.21 ^a % | TBARS levels (% AAPH) ([3]; 100 μg/mL): 29.7 ± 1.31 ^a % | IC50 TBARS [3]: 1.032 µg/mL (≈ 3.62 µM) | IC50 [4]: > 25 µg/mL | IC50 [5]: > 25 µg/mL | IC50 [6]: > 25 µg/mL | LDH % Release [7]: 17.31% | melting point: 90 °C

O=C(NCCc1ccccc1)c1ccccc1O [Rip-C, 2-Hydroxy-N-phenethylbenzamide]
Nitrite Production (% induced by SNP) ([1]; 1 μg/mL): 69.3 ± 1.07 ^a % | Nitrite Production (% induced by SNP) ([1]; 5 μg/mL): 34.9 ± 0.23 ^a % | Nitrite Production (% induced by SNP) ([1]; 10 μg/mL): 22.9 ± 1.31 ^a % | Nitrite Production (% induced by SNP) ([1]; 25 μg/mL): 19.8 ± 0.83 ^a % | Nitrite Production (% induced by SNP) ([1]; 100 μg/mL): 16.5 ± 1.44 ^a % | IC50 Nitrite [1]: 0.7240 µg/mL (≈ 3 µM) | 2-Deoxyribose degradation (%) ([2]; 1 μg/mL): 95.5 ± 1.30 ^a % | 2-Deoxyribose degradation (%) ([2]; 5 μg/mL): 80.9 ± 1.29 ^a % | 2-Deoxyribose degradation (%) ([2]; 10 μg/mL): 58.7 ± 1.37 ^a % | 2-Deoxyribose degradation (%) ([2]; 25 μg/mL): 52.1 ± 0.13 ^a % | 2-Deoxyribose degradation (%) ([2]; 100 μg/mL): 46.7 ± 0.35 ^a % | IC50 OH radical [2]: 0.9516 µg/mL (≈ 3.94 µM) | TBARS levels (% AAPH) ([3]; 1 μg/mL): 39.3 ± 0.60 ^a % | TBARS levels (% AAPH) ([3]; 5 μg/mL): 38.8 ± 1.07 ^a % | TBARS levels (% AAPH) ([3]; 10 μg/mL): 34.3 ± 0.92 ^a % | TBARS levels (% AAPH) ([3]; 25 μg/mL): 29.5 ± 1.91 ^a % | TBARS levels (% AAPH) ([3]; 100 μg/mL): 25.7 ± 2.62 ^a % | IC50 TBARS [3]: 0.8971 µg/mL (≈ 3.72 µM) | IC50 [4]: 7.3 µg/mL (≈ 30.3 µM) | IC50 [5]: 3.3 µg/mL (≈ 13.7 µM) | IC50 [6]: > 25 µg/mL | LDH % Release [7]: 87.35% | LDH % Release ([7]; listed as riparin C): greater than 80% | IC50 [8]: 1.9 to 11.4 µg/mL (≈ 7.87 to 47.2 µM) | inhibition at 25 µg/mL [8]: > 70% | melting point: 95 °C

COc1ccc(CCNC(=O)c2ccccc2O)cc1OC [Rip-D, 2-Hydroxy-N-[2-(3,4-methoxyphenyl)ethyl]benzamide]
Nitrite Production (% induced by SNP) ([1]; 1 μg/mL): 72.6 ± 1.81 ^a % | Nitrite Production (% induced by SNP) ([1]; 5 μg/mL): 32.2 ± 1.45 ^a % | Nitrite Production (% induced by SNP) ([1]; 10 μg/mL): 28.9 ± 1.74 ^a % | Nitrite Production (% induced by SNP) ([1]; 25 μg/mL): 24.7 ± 1.77 ^a % | Nitrite Production (% induced by SNP) ([1]; 100 μg/mL): 17.3 ± 2.38 ^a % | IC50 Nitrite [1]: 1.270 µg/mL (≈ 4.21 µM) | 2-Deoxyribose degradation (%) ([2]; 1 μg/mL): 93.5 ± 1.17 ^a % | 2-Deoxyribose degradation (%) ([2]; 5 μg/mL): 67.9 ± 1.74 ^a % | 2-Deoxyribose degradation (%) ([2]; 10 μg/mL): 56.9 ± 0.82 ^a % | 2-Deoxyribose degradation (%) ([2]; 25 μg/mL): 51.9 ± 1.27 ^a % | 2-Deoxyribose degradation (%) ([2]; 100 μg/mL): 47.3 ± 0.88 ^a % | IC50 OH radical [2]: 1.358 µg/mL (≈ 4.51 µM) | TBARS levels (% AAPH) ([3]; 1 μg/mL): 41.2 ± 0.96 ^a % | TBARS levels (% AAPH) ([3]; 5 μg/mL): 39.4 ± 0.71 ^a % | TBARS levels (% AAPH) ([3]; 10 μg/mL): 37.3 ± 0.68 ^a % | TBARS levels (% AAPH) ([3]; 25 μg/mL): 34.4 ± 0.76 ^a % | TBARS levels (% AAPH) ([3]; 100 μg/mL): 25.6 ± 0.66 ^a % | IC50 TBARS [3]: 0.9958 µg/mL (≈ 3.3 µM) | IC50 [4]: 7.3 µg/mL (≈ 24.2 µM) | IC50 [5]: 9 µg/mL (≈ 29.9 µM) | IC50 [6]: > 25 µg/mL | LDH % Release [7]: 83.12% | LDH % Release ([7]; listed as riparin D): greater than 80% | IC50 [8]: 1.9 to 11.4 µg/mL (≈ 6.31 to 37.8 µM) | inhibition at 25 µg/mL [8]: > 70% | melting point: 96 °C
